In PubChem BioAssay (NCI):
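How tested: cells in 96-well plates exposed to compound for 48 hours at five concentrations. At the GI50, growth is halved. The concentration for full growth arrest is given as TGI.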 Residues, ends and D or L forms follow the SMILES beside them. *: point of attachment. Boc = CC(C)(C)OC(=O)*; OBn = c1ccc(CO*)cc1

Key:
Assay in all cases: DTP human tumour cell line panel, 48 h; in the data active = GI50 below about 0.43 µM; inactive = the rest
OVCAR-4 ovarian = system: OVCAR-4 ovarian
HT29 colon = system: HT29 colon
KM12 colon = system: KM12 colon
UO-31 renal = system: UO-31 renal
OVCAR-8 ovarian = system: OVCAR-8 ovarian
SF-268 CNS = system: SF-268 CNS
NCI-H226 lung = system: NCI-H226 lung
HCT-15 colon = system: HCT-15 colon
SN12C renal = system: SN12C renal
EKVX NSCLC = system: EKVX NSCLC
OVCAR-3 ovarian = system: OVCAR-3 ovarian
T-47D breast = system: T-47D breast
UACC-62 melanoma = system: UACC-62 melanoma
DU-145 prostate = system: DU-145 prostate
IGROV1 ovarian = system: IGROV1 ovarian
SK-MEL-5 melanoma = system: SK-MEL-5 melanoma
MDA-N = system: MDA-N
A549 NSCLC = system: A549 NSCLC
786-0 renal = system: 786-0 renal
SK-OV-3 ovarian = system: SK-OV-3 ovarian
SF-539 CNS = system: SF-539 CNS
PC-3 prostate = system: PC-3 prostate
A498 renal = system: A498 renal
SW-620 colon = system: SW-620 colon
SF-295 CNS = system: SF-295 CNS
NCI-H23 lung = system: NCI-H23 lung
SR leukemia = system: SR leukemia
MDA-MB-435 = system: MDA-MB-435
NCI-H522 lung = system: NCI-H522 lung
UACC-257 melanoma = system: UACC-257 melanoma
COLO 205 colon = system: COLO 205 colon
CAKI-1 renal = system: CAKI-1 renal
TK-10 renal = system: TK-10 renal
SNB-19 CNS = system: SNB-19 CNS
NCI/ADR-RES ovarian = system: NCI/ADR-RES ovarian
OVCAR-5 ovarian = system: OVCAR-5 ovarian
ACHN renal = system: ACHN renal
K-562 leukemia = system: K-562 leukemia
MDA-MB-231 breast = system: MDA-MB-231 breast
LOX IMVI melanoma = system: LOX IMVI melanoma
RXF 393 renal = system: RXF 393 renal
SK-MEL-2 melanoma = system: SK-MEL-2 melanoma
MCF7 breast = system: MCF7 breast
HOP-92 NSCLC = system: HOP-92 NSCLC
HCT-116 colon = system: HCT-116 colon
MALME-3M melanoma = system: MALME-3M melanoma
U251 CNS = system: U251 CNS
SNB-75 CNS = system: SNB-75 CNS
BT-549 breast = system: BT-549 breast
SK-MEL-28 melanoma = system: SK-MEL-28 melanoma
M14 melanoma = system: M14 melanoma
HCC-2998 colon = system: HCC-2998 colon
HOP-62 NSCLC = system: HOP-62 NSCLC
RPMI-8226 leukemia = system: RPMI-8226 leukemia
CCRF-CEM leukemia = system: CCRF-CEM leukemia
NCI-H460 lung = system: NCI-H460 lung
MOLT-4 leukemia = system: MOLT-4 leukemia
HL-60(TB) leukemia = system: HL-60(TB) leukemia
HS 578T breast = system: HS 578T breast

CC(C)CC(NC(=O)OC(C)(C)C)C(=O)N1CCCC1C(=O)OCc1ccccc1 (stereo not drawn) (Boc-Leu-Pro-OBn; configuration not given here)
> 100 µM: TGI (OVCAR-4 ovarian) | TGI (HT29 colon) | TGI (KM12 colon) | TGI (UO-31 renal) | TGI (OVCAR-8 ovarian) | TGI (SF-268 CNS) | TGI (NCI-H226 lung) | TGI (HCT-15 colon) | TGI (SN12C renal) | TGI (EKVX NSCLC) | TGI (OVCAR-3 ovarian) | TGI (T-47D breast) | TGI (UACC-62 melanoma) | TGI (DU-145 prostate) | TGI (IGROV1 ovarian) | TGI (SK-MEL-5 melanoma) | TGI (MDA-N) | TGI (A549 NSCLC) | TGI (786-0 renal) | TGI (SK-OV-3 ovarian) | TGI (SF-539 CNS) | TGI (PC-3 prostate) | TGI (A498 renal) | TGI (SW-620 colon) | TGI (SF-295 CNS) | TGI (NCI-H23 lung) | TGI (SR leukemia) | TGI (MDA-MB-435) | TGI (NCI-H522 lung) | TGI (UACC-257 melanoma) | TGI (COLO 205 colon) | TGI (CAKI-1 renal) | TGI (TK-10 renal) | TGI (SNB-19 CNS) | TGI (NCI/ADR-RES ovarian) | TGI (OVCAR-5 ovarian) | TGI (ACHN renal) | TGI (K-562 leukemia) | TGI (MDA-MB-231 breast) | TGI (LOX IMVI melanoma) | TGI (RXF 393 renal) | TGI (SK-MEL-2 melanoma) | TGI (MCF7 breast) | TGI (HOP-92 NSCLC) | TGI (HCT-116 colon) | TGI (MALME-3M melanoma) | TGI (U251 CNS) | TGI (SNB-75 CNS) | TGI (BT-549 breast) | TGI (SK-MEL-28 melanoma) | TGI (M14 melanoma)

NC(=O)C(=O)C(c1ccccc1)S(=O)(=O)Cc1ccccc1 (configuration not stated)
> 100 µM: TGI (OVCAR-4 ovarian) | TGI (HT29 colon) | TGI (KM12 colon) | TGI (HCC-2998 colon) | TGI (UO-31 renal) | TGI (OVCAR-8 ovarian) | TGI (SF-268 CNS) | TGI (NCI-H226 lung) | TGI (HCT-15 colon) | TGI (SN12C renal) | TGI (EKVX NSCLC) | TGI (OVCAR-3 ovarian) | TGI (T-47D breast) | TGI (UACC-62 melanoma) | TGI (DU-145 prostate) | TGI (IGROV1 ovarian) | TGI (SK-MEL-5 melanoma) | TGI (MDA-N) | TGI (A549 NSCLC) | TGI (786-0 renal) | TGI (SK-OV-3 ovarian) | TGI (SF-539 CNS) | TGI (HOP-62 NSCLC) | TGI (RPMI-8226 leukemia) | TGI (PC-3 prostate) | TGI (CCRF-CEM leukemia) | TGI (SW-620 colon) | TGI (NCI-H460 lung) | TGI (SF-295 CNS) | TGI (NCI-H23 lung) | TGI (SR leukemia) | TGI (MDA-MB-435) | TGI (NCI-H522 lung) | TGI (UACC-257 melanoma) | TGI (COLO 205 colon) | TGI (CAKI-1 renal) | TGI (TK-10 renal) | TGI (SNB-19 CNS) | TGI (NCI/ADR-RES ovarian) | TGI (OVCAR-5 ovarian) | TGI (ACHN renal) | TGI (K-562 leukemia) | TGI (MDA-MB-231 breast) | TGI (LOX IMVI melanoma) | TGI (RXF 393 renal) | TGI (SK-MEL-2 melanoma) | TGI (MCF7 breast) | TGI (HOP-92 NSCLC) | TGI (HCT-116 colon) | TGI (U251 CNS) | TGI (SNB-75 CNS) | TGI (BT-549 breast) | TGI (SK-MEL-28 melanoma) | TGI (MOLT-4 leukemia) | TGI (M14 melanoma)

CCc1cc2ncc(CN3CCN(c4ccc(C(=O)NC)nc4)CC3)cc2[nH]c1=O
> 100 µM: TGI (OVCAR-4 ovarian) | TGI (HT29 colon) | TGI (HL-60(TB) leukemia) | TGI (KM12 colon) | TGI (HCC-2998 colon) | TGI (UO-31 renal) | TGI (OVCAR-8 ovarian) | TGI (SF-268 CNS) | TGI (NCI-H226 lung) | TGI (HCT-15 colon) | TGI (SN12C renal) | TGI (EKVX NSCLC) | TGI (OVCAR-3 ovarian) | TGI (T-47D breast) | TGI (UACC-62 melanoma) | TGI (DU-145 prostate) | TGI (IGROV1 ovarian) | TGI (SK-MEL-5 melanoma) | TGI (A549 NSCLC) | TGI (786-0 renal) | TGI (SK-OV-3 ovarian) | TGI (SF-539 CNS) | TGI (HOP-62 NSCLC) | TGI (RPMI-8226 leukemia) | TGI (PC-3 prostate) | TGI (A498 renal) | TGI (CCRF-CEM leukemia) | TGI (SW-620 colon) | TGI (NCI-H460 lung) | TGI (SF-295 CNS) | TGI (NCI-H23 lung) | TGI (SR leukemia) | TGI (MDA-MB-435) | TGI (NCI-H522 lung) | TGI (UACC-257 melanoma) | TGI (HS 578T breast) | TGI (COLO 205 colon) | TGI (CAKI-1 renal) | TGI (TK-10 renal) | TGI (SNB-19 CNS) | TGI (NCI/ADR-RES ovarian) | TGI (OVCAR-5 ovarian) | TGI (ACHN renal) | TGI (K-562 leukemia) | TGI (MDA-MB-231 breast) | TGI (LOX IMVI melanoma) | TGI (RXF 393 renal) | TGI (SK-MEL-2 melanoma) | TGI (MCF7 breast) | TGI (HOP-92 NSCLC) | TGI (HCT-116 colon) | TGI (MALME-3M melanoma) | TGI (U251 CNS) | TGI (SNB-75 CNS) | TGI (BT-549 breast) | TGI (SK-MEL-28 melanoma) | TGI (MOLT-4 leukemia) | TGI (M14 melanoma)
inactive: GI50 (OVCAR-4 ovarian) 41.3 µM | GI50 (HT29 colon) 48.2 µM | GI50 (HL-60(TB) leukemia) 32.1 µM | GI50 (KM12 colon) > 100 µM | GI50 (HCC-2998 colon) 87.9 µM | GI50 (UO-31 renal) 29.5 µM | GI50 (OVCAR-8 ovarian) > 100 µM | GI50 (SF-268 CNS) > 100 µM | GI50 (NCI-H226 lung) 14.7 µM | GI50 (HCT-15 colon) 65.4 µM | GI50 (SN12C renal) 98.3 µM | GI50 (EKVX NSCLC) 84.9 µM | GI50 (OVCAR-3 ovarian) 40.5 µM | GI50 (T-47D breast) 28.2 µM | GI50 (UACC-62 melanoma) 39.2 µM | GI50 (DU-145 prostate) > 100 µM | GI50 (IGROV1 ovarian) 57.4 µM | GI50 (SK-MEL-5 melanoma) 30.4 µM | GI50 (A549 NSCLC) > 100 µM | GI50 (786-0 renal) 79.6 µM | GI50 (SK-OV-3 ovarian) > 100 µM | GI50 (SF-539 CNS) 66.9 µM | GI50 (HOP-62 NSCLC) 55.7 µM | GI50 (RPMI-8226 leukemia) 40.4 µM | GI50 (PC-3 prostate) 51.7 µM | GI50 (A498 renal) > 100 µM | GI50 (CCRF-CEM leukemia) 97.1 µM | GI50 (SW-620 colon) > 100 µM | GI50 (NCI-H460 lung) 33.5 µM | GI50 (SF-295 CNS) 56.7 µM | GI50 (NCI-H23 lung) 53.5 µM | GI50 (SR leukemia) 11.5 µM | GI50 (MDA-MB-435) 85.8 µM | GI50 (NCI-H522 lung) 27.1 µM | GI50 (UACC-257 melanoma) 55.1 µM | GI50 (HS 578T breast) 64 µM | GI50 (COLO 205 colon) > 100 µM | GI50 (CAKI-1 renal) 24.2 µM | GI50 (TK-10 renal) 43.1 µM | GI50 (SNB-19 CNS) 99.7 µM | GI50 (NCI/ADR-RES ovarian) > 100 µM | GI50 (OVCAR-5 ovarian) > 100 µM | GI50 (ACHN renal) 78.3 µM | GI50 (K-562 leukemia) 50 µM | GI50 (MDA-MB-231 breast) 82 µM | GI50 (LOX IMVI melanoma) 60 µM | GI50 (RXF 393 renal) 17 µM | GI50 (SK-MEL-2 melanoma) > 100 µM | GI50 (MCF7 breast) 29.4 µM | GI50 (HOP-92 NSCLC) 12.3 µM | GI50 (HCT-116 colon) 59.6 µM | GI50 (MALME-3M melanoma) > 100 µM | GI50 (U251 CNS) > 100 µM | GI50 (SNB-75 CNS) 18 µM | GI50 (BT-549 breast) 25.9 µM | GI50 (SK-MEL-28 melanoma) > 100 µM | GI50 (MOLT-4 leukemia) 46 µM | GI50 (M14 melanoma) 92.4 µM
